{
  "source": "patent US9919998B2",
  "about": "“Antibacterial agents: Nα-aroyl-N-aryl-phenylalaninamides” (priority 2014, dated 2018)",
  "assay_type_in_all_cases": "cell-based",
  "key": {"[1]": {"tested_on": "Mycobacterium tuberculosis H37Rv", "test": "Microplate Alamar Blue assay (MABA) MIC, M. tuberculosis", "conditions": "read-out: MIC Mycobacterium tuberculosis H37Rv", "source_text": "(§1) Minimal inhibitory concentrations (MICs) in Mycobacterium tuberculosis H37Rv and Mycobacterium avium ATCC 25291 were quantified using microplate Alamar Blue assays as described (MABA; [Collins, L. & Franzblau, S. (1997) Microplate Alamar Blue assay versus BACTEC 460 system for high-throughput screening of compounds against Mycobacterium tuberculosis and Mycobacterium avium. Antimicrob. Agents Chemother. 41, 1004-1009])."}, "[2]": {"tested_on": "Mycobacterium smegmatis ATCC 19420", "test": "Broth microdilution MIC, M. smegmatis", "conditions": "Mycolicibacterium smegmatis, ATCC19420, M. smegmatis ATCC 19420; read-out: MIC Mycobacterium smegmatis ATCC 19420", "source_text": "MICs in Mycobacterium smegmatis ATCC 19420 and Mycobacterium smegmatis ATCC 19420 derivatives were quantified using broth microdilution assays as described [Clinical and Laboratory Standards Institute (CLSI/NCCLS) (2009) Methods for Dilution Antimicrobial Susceptibility Tests for Bacteria That Grow Aerobically; Approved Standard, Eighth Edition. CLIS Document M07-A8 (CLIS, Wayne Pa.)]."}, "[3]": {"tested_on": "Mycobacterium avium ATCC 25291", "test": "Microplate Alamar Blue assay (MABA) MIC, M. avium", "conditions": "ATCC25291, M. avium ATCC 25291", "source_text": "as §1"}, "[4]": {"tested_on": "Vero E6 ATCC CRL1586 cells", "test": "Mammalian-cell cytotoxicity, minimal cytotoxic concentration (CellTiter96)", "description": "Minimal cytotoxic concentrations (MCCs) against mammalian cells in culture were determined using Vero E6 ATCC CRL1586 cells and the CellTiter96 assay kit (Promega, Inc.). […]"}},
  "data": [
    {"compound": "O=C(NC(Cc1ccccc1)C(=O)Nc1ccccc1N1CCOCC1)c1ccccc1F", "note": "(stereo not shown) [IX-152, 2-fluoro-N-(1-((2-morpholinophenyl)amino)-1-oxo-3-phenylpropan-2-yl)benzamide]", "values": [
      {"measurement": "MIC", "setting": "[1]", "result": 1.56, "unit": "µg/mL"},
      {"measurement": "MIC", "setting": "[2]", "result": 0.073, "unit": "µg/mL"},
      {"measurement": "MIC", "setting": "[3]", "result": 3.12, "unit": "µg/mL"},
      {"measurement": "MCC mammalian cells Vero E6 ATCC CRL1586", "setting": "[4]", "result": 90, "unit": "µg/mL"}
    ]},
    {"compound": "Cn1nnc2cccc(NC(=O)C(Cc3ccccc3)NC(=O)c3ccccc3)c21", "note": "(stereo not shown) [IX-224, N-(1-((1-methyl-1H-benzo[d][1,2,3]triazol-7-yl)amino)-1-oxo-3-phenylpropan-2-yl)benzamide]", "values": [
      {"measurement": "MIC", "setting": "[1]", "result": 6.25, "unit": "µg/mL"},
      {"measurement": "MIC", "setting": "[2]", "result": 0.39, "unit": "µg/mL"},
      {"measurement": "MIC", "setting": "[3]", "result": 25, "unit": "µg/mL"},
      {"measurement": "MCC mammalian cells Vero E6 ATCC CRL1586", "setting": "[4]", "result": ">100", "unit": "µg/mL"}
    ]},
    {"compound": "O=C(NC(Cc1ccccc1)C(=O)Nc1cccc2ccoc12)c1ccccc1", "note": "(stereo not shown) [II-65]", "values": [
      {"measurement": "MIC", "setting": "[1]", "result": "> 50", "unit": "µg/mL"},
      {"measurement": "MIC", "setting": "[2]", "result": 0.39, "unit": "µg/mL"},
      {"measurement": "MIC", "setting": "[3]", "result": "> 50", "unit": "µg/mL"},
      {"measurement": "MCC mammalian cells Vero E6 ATCC CRL1586", "setting": "[4]", "result": 78, "unit": "µg/mL"}
    ]},
    {"compound": "Cc1c(NC(=O)C(Cc2ccccc2)NC(=O)c2ccccc2)cccc1N1CCCC1", "note": "(stereo not shown) [I-193]", "values": [
      {"measurement": "MIC", "setting": "[1]", "result": 6.25, "unit": "µg/mL"},
      {"measurement": "MIC", "setting": "[2]", "result": 6.25, "unit": "µg/mL"},
      {"measurement": "MIC", "setting": "[3]", "result": 50, "unit": "µg/mL"},
      {"measurement": "MCC mammalian cells Vero E6 ATCC CRL1586", "setting": "[4]", "result": ">100", "unit": "µg/mL"}
    ]},
    {"compound": "O=C(NC(Cc1ccccc1)C(=O)Nc1cccc2nc[nH]c12)c1ccccc1", "note": "(stereo not shown) [IX-230, N-(1-((1H-benzo[d]imidazol-7-yl)amino)-1-oxo-3-phenylpropan-2-yl)benzamide]", "values": [
      {"measurement": "MIC", "setting": "[1]", "result": 50, "unit": "µg/mL"},
      {"measurement": "MIC", "setting": "[2]", "result": 0.39, "unit": "µg/mL"},
      {"measurement": "MIC", "setting": "[3]", "result": 25, "unit": "µg/mL"},
      {"measurement": "MCC mammalian cells Vero E6 ATCC CRL1586", "setting": "[4]", "result": 84, "unit": "µg/mL"}
    ]},
    {"compound": "O=C(NC(Cc1ccccc1)C(=O)Nc1cccc2[nH]ncc12)c1cccs1", "note": "(stereo not shown) [IX-201, N-(1-((1H-indazol-4-yl)amino)-1-oxo-3-phenylpropan-2-yl)thiophene-2-carboxamide]", "values": [
      {"measurement": "MIC", "setting": "[1]", "result": 25, "unit": "µg/mL"},
      {"measurement": "MIC", "setting": "[2]", "result": 0.09, "unit": "µg/mL"},
      {"measurement": "MIC", "setting": "[3]", "result": 12.5, "unit": "µg/mL"},
      {"measurement": "MCC mammalian cells Vero E6 ATCC CRL1586", "setting": "[4]", "result": 47, "unit": "µg/mL"}
    ]},
    {"compound": "O=C(NC(Cc1ccccc1)C(=O)Nc1cccc2cnccc12)c1ccccc1Cl", "note": "(stereo not shown) [IX-63, 2-chloro-N-(1-(isoquinolin-5-ylamino)-1-oxo-3-phenylpropan-2-yl)benzamide]", "values": [
      {"measurement": "MIC", "setting": "[1]", "result": 6.25, "unit": "µg/mL"},
      {"measurement": "MIC", "setting": "[2]", "result": 0.78, "unit": "µg/mL"},
      {"measurement": "MIC", "setting": "[3]", "result": 12.5, "unit": "µg/mL"},
      {"measurement": "MCC mammalian cells Vero E6 ATCC CRL1586", "setting": "[4]", "result": ">100", "unit": "µg/mL"}
    ]},
    {"compound": "O=C(NC(Cc1ccc(O)cc1)C(=O)Nc1cc(F)ccc1N1CCNCC1)c1ccccc1", "note": "(stereo not shown) [IX-246, N-(1-((5-fluoro-2-(piperazin-1-yl)phenyl)amino)-3-(4-hydroxy-phenyl)-1-oxopropan-2-yl)benzamide]", "values": [
      {"measurement": "MIC", "setting": "[1]", "result": 3.12, "unit": "µg/mL"},
      {"measurement": "MIC", "setting": "[2]", "result": 0.195, "unit": "µg/mL"},
      {"measurement": "MIC", "setting": "[3]", "result": 0.78, "unit": "µg/mL"},
      {"measurement": "MCC mammalian cells Vero E6 ATCC CRL1586", "setting": "[4]", "result": 34, "unit": "µg/mL"}
    ]},
    {"compound": "Cc1cccc(NC(=O)C(Cc2ccccc2)NC(=O)c2ccccc2)c1C", "note": "(stereo not shown) [I-105]", "values": [
      {"measurement": "MIC", "setting": "[1]", "result": 3.12, "unit": "µg/mL"},
      {"measurement": "MIC", "setting": "[2]", "result": 0.39, "unit": "µg/mL"},
      {"measurement": "MIC", "setting": "[3]", "result": 12.5, "unit": "µg/mL"},
      {"measurement": "MCC mammalian cells Vero E6 ATCC CRL1586", "setting": "[4]", "result": 21, "unit": "µg/mL"}
    ]},
    {"compound": "O=C(NC(Cc1ccc(O)cc1)C(=O)Nc1ccccc1N1CCOCC1)c1cccs1", "note": "(stereo not shown) [IX-183, N-(3-(4-hydroxyphenyl)-1-((2-morpholinophenyl)amino)-1-oxopropan-2-yl)thiophene-2-carboxamide]", "values": [
      {"measurement": "MIC", "setting": "[1]", "result": 1.56, "unit": "µg/mL"},
      {"measurement": "MIC", "setting": "[2]", "result": 0.097, "unit": "µg/mL"},
      {"measurement": "MIC", "setting": "[3]", "result": 6.25, "unit": "µg/mL"},
      {"measurement": "MCC mammalian cells Vero E6 ATCC CRL1586", "setting": "[4]", "result": ">100", "unit": "µg/mL"}
    ]},
    {"compound": "O=C(NC(Cc1ccccc1)C(=O)Nc1ccccc1OC(F)F)c1ccccc1F", "note": "(stereo not shown) [IX-101, N-(1-((2-(difluoromethoxy)phenyl)amino)-1-oxo-3-phenylpropan-2-yl)-2-fluorobenzamide]", "values": [
      {"measurement": "MIC", "setting": "[1]", "result": 6.25, "unit": "µg/mL"},
      {"measurement": "MIC", "setting": "[2]", "result": 0.39, "unit": "µg/mL"},
      {"measurement": "MIC", "setting": "[3]", "result": 6.25, "unit": "µg/mL"},
      {"measurement": "MCC mammalian cells Vero E6 ATCC CRL1586", "setting": "[4]", "result": ">100", "unit": "µg/mL"}
    ]},
    {"compound": "O=C(NC(Cc1ccccc1)C(=O)Nc1cccc2sccc12)c1ccccc1", "note": "(stereo not shown) [II-46]", "values": [
      {"measurement": "MIC", "setting": "[1]", "result": 3.12, "unit": "µg/mL"},
      {"measurement": "MIC", "setting": "[2]", "result": 0.195, "unit": "µg/mL"},
      {"measurement": "MIC", "setting": "[3]", "result": 3.12, "unit": "µg/mL"},
      {"measurement": "MCC mammalian cells Vero E6 ATCC CRL1586", "setting": "[4]", "result": ">100", "unit": "µg/mL"}
    ]},
    {"compound": "COc1ccccc1NC(=O)C(Cc1ccccc1)NC(=O)c1ccccc1Cl", "note": "(stereo not shown) [IX-62, 2-chloro-N-(1-((2-methoxyphenyl)amino)-1-oxo-3-phenylpropan-2-yl)benzamide]", "values": [
      {"measurement": "MIC", "setting": "[1]", "result": 6.25, "unit": "µg/mL"},
      {"measurement": "MIC", "setting": "[2]", "result": 0.39, "unit": "µg/mL"},
      {"measurement": "MIC", "setting": "[3]", "result": 6.25, "unit": "µg/mL"},
      {"measurement": "MCC mammalian cells Vero E6 ATCC CRL1586", "setting": "[4]", "result": 12, "unit": "µg/mL"}
    ]},
    {"compound": "O=C(NC(Cc1ccc(O)cc1)C(=O)Nc1cccc2cc[nH]c12)c1ccccc1", "note": "(stereo not shown) [IX-40, N-(1-((1H-indol-7-yl)amino)-3-(4-hydroxyphenyl)-1-oxopropan-2-yl)benzamide]", "values": [
      {"measurement": "MIC", "setting": "[1]", "result": 12.5, "unit": "µg/mL"},
      {"measurement": "MIC", "setting": "[2]", "result": 0.39, "unit": "µg/mL"},
      {"measurement": "MIC", "setting": "[3]", "result": 12.5, "unit": "µg/mL"},
      {"measurement": "MCC mammalian cells Vero E6 ATCC CRL1586", "setting": "[4]", "result": 78, "unit": "µg/mL"}
    ]},
    {"compound": "O=C(NC(Cc1ccccc1)C(=O)Nc1cc(F)ccc1N1CCOCC1)c1ccccc1", "note": "(stereo not shown) [IX-157, N-(1-((5-fluoro-2-morpholinophenyl)amino)-1-oxo-3-phenylpropan-2-yl)benzamide]", "values": [
      {"measurement": "MIC", "setting": "[1]", "result": 0.78, "unit": "µg/mL"},
      {"measurement": "MIC", "setting": "[2]", "result": 0.047, "unit": "µg/mL"},
      {"measurement": "MIC", "setting": "[3]", "result": 1.56, "unit": "µg/mL"},
      {"measurement": "MCC mammalian cells Vero E6 ATCC CRL1586", "setting": "[4]", "result": 48, "unit": "µg/mL"}
    ]},
    {"compound": "O=C(NC(Cc1ccccc1)C(=O)Nc1cccc2c1OC(F)(F)O2)c1ccccc1F", "note": "(stereo not shown) [IX-122, N-(1-((2,2-difluorobenzo[d][1,3]dioxol-4-yl)amino)-1-oxo-3-phenyl-propan-2-yl)-2-fluorobenzamide]", "values": [
      {"measurement": "MIC", "setting": "[1]", "result": "> 50", "unit": "µg/mL"},
      {"measurement": "MIC", "setting": "[2]", "result": 1.56, "unit": "µg/mL"},
      {"measurement": "MIC", "setting": "[3]", "result": "> 50", "unit": "µg/mL"},
      {"measurement": "MCC mammalian cells Vero E6 ATCC CRL1586", "setting": "[4]", "result": 94, "unit": "µg/mL"}
    ]}
  ]
}
